Experimental data: patent US20070003987A1, “Screening method for substance binding to merozoite surface protein-1/42” (priority 2003, published 2007)

Columns and labels:
P. falciparum (FCB-1) [1] = test: growth inhibition assay by [3H] hypoxanthine uptake; assay type: cell-based, Plasmodium falciparum; settings: Plasmodium falciparum, Erythrocyte, read-out: IC50, inhibition of erythrocyte invasion ([3H] hypoxanthine incorporation, FIG. 2)
Experimental: (§1) Asexual blood stages of P. falciparum (FCB-1) were maintained at 37° C. in RPMI 1640/Albumax medium (Gibco) supplemented with 2 mM L-glutamine as previously described (Blackman, 1994 Methods Cell Biol. 45, 213-220). Cultures were gassed with 7% CO2, 5% O2 and 88% N2 and maintained by routine passage in fresh human erythrocytes. Parasites were synchronised by Percoll and sorbitol treatment (Holder & Freeman, 1982 J. Exp. Med. 156, 1528-1538); schizonts were purified by centrifugation over Percoll and then returned to culture in the presence of fresh erythrocytes. After 4 h, during which time released merozoites invaded erythrocytes, the cells were treated with 5% sorbitol for 10 min to lyse the residual schizonts, before returning the parasites to culture.
Suramin and NTS were also assayed for P. falciparum growth inhibition using [^3H] hypoxanthine uptake (generally as described by Desjardins et al, 1979 Antimicrob. Agents Chemother. 16, 710-718). Serial dilutions of the compounds in 96-well plates were incubated at 37° C. with purified mature schizonts at a final parasitaemia of ^˜0.5% and a haematrocrit of ^˜2% in triplicate cultures. […] The filters were wetted with scintillation cocktail and the bound radioactivity counted in a β-counter. […] The amount of radioactivity in each sample was expressed as a percentage of activity in the control wells containing no compound. […]

MSP142 [2] = target: T1, MSP142 (Plasmodium falciparum, UniProt Q8I0U8); test: inhibition of suramin binding (fluorescence, 384-well plate); settings: λex 320 nm/λem 405 nm
Experimental: MSP142 (0.1 mg/ml), 10 μM suramin analogue and 2 μM suramin were combined in a 384-well black polypropylene low binding plate (total reaction volume 100 μL). Fluorescence was read at λex 320 nm/λem 405 nm on a BMG Polarstar fluorimeter. Readings were taken before, and 1 hour after, addition of suramin.

P. falciparum MSP142 = target: T2, P. falciparum MSP142 (Plasmodium falciparum, UniProt Q8I0U8); test: binding of suramin to MSP1 by fluorimetry
T2 construct: was used to express a His6-tagged MSP142 protein; His6; made in house; host or cells: E. coli BL21 (DE3)
Experimental: The pETATPf MSP142 plasmid (described by Angov et al, 2003 Mol. Biochem. Parasitol. 128, 195-204) was used to express a His6-tagged MSP142 protein (P. falciparum 3D7 clone, Accession Number Z35327). The DNA was used to transform E. coli BL21 (DE3) cells and then clones were selected on plates of agar containing ampicillin. Cells expressing the modified MSP142 were grown to mid log phase (OD6000.5-0.8) at 37° C., then after the incubation temperature had been reduced to 25° C., the protein expression was induced by addition of 0.1 mM IPTG. After 2 h of further growth the bacterial cells were harvested by centrifugation. The resulting cell paste was resuspended in lysis buffer (10 mM sodium phosphate, 50 mM NaCl, 10 mM imidazole, pH 6.2) and lysed by microfluidization. […]
The intrinsic fluorescence of suramin was used to determine its capacity to bind to the various MSP1-derived proteins. The fluorescence was measured using a Perkin Elmer LS-3B or a Spex Fluoro Max 2 fluorimeter. Suramin was excited at a wavelength of 315 or 330 nm with 2.5 nm resolution, the emission spectra were measured at wavelengths ranging from 350-450 nm. Suramin and the MSP1 proteins were diluted in 20 mM NaH2PO4, 150 mM NaCl at pH 7.2 and analysed at 10 or 20° C. […] The Kd for the suramin-MSP1 binding was determined from three independent experiments. […]

MSP142 [3] = target: T1, MSP142; test: competition binding of analogues 258 and 264 against suramin; settings: MSP142 0.1 mg/ml, 1 hour
Experimental: MSP142 (0.1 mg/ml) and fixed concentrations of analogue 258 (5 μM) or 264 (10 μM) were premixed and 90 μL added to a 384-well black polypropylene plate. Suramin was added to give a final concentration in the range 0.01 to 200 μM in a total reaction volume of 100 μL. The plates were incubated at room temperature protected from light for 1 hour, and then read as before. Results are shown in FIG. 10, which is a graph of fluorescence (arbitary units) against concentration of suramin competitor for analogue 258 (white squares) and 264 (black circles).

P. falciparum (FCB-1) [4] = test: short-term in vitro invasion assay (newly invaded ring stages counted by microscopy); assay type: cell-based, Plasmodium falciparum
Experimental: as §1
Compounds were tested for their ability to inhibit invasion in vitro, using two approaches: a short-term assay in which the number of newly invaded erythrocytes was counted using microscopy, and a growth assay measuring uptake of [^3H] hypoxanthine. In the short term-assay (described previously by Blackman et al, 1990 J. Exp. Med. 172, 379-382), compounds were incubated with purified P. falciparum schizonts at ^˜2% parasitaemia and ^˜2% haematocrit in triplicate cultures. After between 6 and 24 h, blood smears were stained with Giemsa's reagent and examined by microscopy. […]

T1 sequence (Q8I0U8 1327-1699): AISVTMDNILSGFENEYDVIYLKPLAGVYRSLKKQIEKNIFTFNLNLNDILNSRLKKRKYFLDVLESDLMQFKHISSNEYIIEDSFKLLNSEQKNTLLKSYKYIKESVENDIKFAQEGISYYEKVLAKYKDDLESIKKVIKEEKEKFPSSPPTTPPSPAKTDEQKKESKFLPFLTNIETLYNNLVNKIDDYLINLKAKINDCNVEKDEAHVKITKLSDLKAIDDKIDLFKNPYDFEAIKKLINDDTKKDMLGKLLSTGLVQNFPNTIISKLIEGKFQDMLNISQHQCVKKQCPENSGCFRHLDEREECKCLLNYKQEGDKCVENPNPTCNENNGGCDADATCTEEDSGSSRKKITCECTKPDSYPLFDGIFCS
T2 sequence (Q8I0U8 1327-1699): as above

Cc1ccc(C(=O)Nc2ccc(S(=O)(=O)O)c3cc(S(=O)(=O)O)cc(S(=O)(=O)O)c23)cc1NC(=O)c1cccc(NC(=O)Nc2cccc(C(=O)Nc3cc(C(=O)Nc4ccc(S(=O)(=O)O)c5cc(S(=O)(=O)O)cc(S(=O)(=O)O)c45)ccc3C)c2)c1 [suramin]
IC50 (P. falciparum (FCB-1) [1]): 60 µM
signal to noise ratio of fluorescence signal (MSP142 [2]): 1.8
Kd (P. falciparum MSP142): 0.22 µM
change of suramin emission intensity on binding to MSP142 (P. falciparum MSP142; excited at 315 nm): pronounced increase in emission intensity
IC50 (MSP142 [3]; IC50, displacement of analogue 258 from MSP1 by suramin, analogue 258 at 5 μM): 8 µM
IC50 (MSP142 [3]; IC50, displacement of analogue 264 from MSP1 by suramin, analogue 264 at 10 μM): 3 µM
inhibition of merozoite invasion of erythrocytes (microscopy, Giemsa) (P. falciparum (FCB-1) [4]): inhibited merozoite invasion of erythrocytes
inhibition of merozoite release from schizonts (microscopy) (P. falciparum (FCB-1) [4]): did not inhibit merozoite release from schizonts
